Measured values published in patent publication US4556715A, “Nicotinic acid derivatives” (Kyorin Pharmaceutical Co., Ltd., priority 1980, dated 1985).
Read-outs that look alike come from different tables or passages of the source.

Experiments:
[1] = test system: serum and liver lipid levels in normal rats; assay: Effects on relative liver weight, serum and liver lipid levels in normal rats (100 mg/kg, 7 days); type: in vivo, Male Wistar strain rats
Experimental: (1) Effects on relative liver weight, serum and liver lipid levels in normal rats
Male Wistar strain rats, weighing 180-210 g were orally administered the present compounds (X=Cl, n1 =2, 3, 4 and n2 =1) and 4-(4-chlorobenzyloxy)benzyl nicotinate (KCD-232), being X=Cl, n1 =1, n2 =1, respectively, which were suspended in 0.5% carboxymethyl cellulose (CMC) solution once a day at a dose of 100 mg/kg b.w. for 7 days. The last administration was occured in rats fasted overnight. At 4 hr later blood was withdrawn from jugular vein, clotted and centrifuged to obtain serum. The liver was rapidly removed and weighed. Total lipids were extracted from the serum and liver, and cholesterol (Ch), triglycerides (TG) and phospholipids (PL) levels were determined.

[2] = test system: serum and liver lipid levels in rats; assay: Serum and liver lipid levels and relative liver weight in rats (100 mg/kg, 10 days); type: in vivo, Male rats of the Wistar strain; settings: for response vs control in vivo at 100 mg/kg: Rattus norvegicus, po
How it was run: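 Male Wistar rats (160-180 g) on stock diet were dosed orally once daily at 100 mg/kg in 0.5% CMC for 10 days; controls got vehicle. Sacrifice 4 hr after last dose with diet withdrawn; liver weighed. Serum and liver Ch, TG and PL measured colorimetrically after lipid extraction.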

in vivo = settings: mouse, po, p o, male ICR mice
From the text: The present compounds were given to 6 week-old male mice of the ICR strain and their acute toxicity was examined.

[3] = Table 1, 100 mg/kg p.o. 7 days, fasted overnight, mean ± S.E. (n = 6)
[4] = Table 1, in parentheses, Control = (100)
[5] = Table 2, 100 mg/kg p.o. 10 days, Mean ± S.E. (n = 9)

SMILES: O=C(OCc1ccc(OCCCCc2ccc(Cl)cc2)cc1)c1cccnc1 [n1=4, n2=1, 4-[4-(4-chlorophenyl)butoxy]benzyl nicotinate]
- serum Ch, TG and PL (in words) ([1]; 100 mg/kg p.o. 7 days, compared with control): significantly reduced serum Ch, TG and PL
- reduction of liver TG level compared with control ([1]; 100 mg/kg p.o. 7 days, p<0.05): 32%
- Liver lipid levels Ch [1, 3]: 3.43 ± 0.10 mg/g liver
- Liver lipid levels PL [1, 3]: 30.2 ± 1.4 mg/g liver
- Liver lipid levels TG [1, 3]: 5.06 ± 1.21 mg/g liver
- Serum lipid levels Ch [1, 3]: 45.3 ± 3.8 mg/dL
- Serum lipid levels PL [1, 3]: 60.4 ± 4.8 mg/dL
- Serum lipid levels TG [1, 3]: 16 ± 3.2 mg/dL
- Relative liver weight ([1]; Table 1, 100 mg/kg p.o. 7 days, mean ± S.E. (n = 6)): 3.16 ± 0.05 g/100 g b.w.
- Liver lipid levels Ch, relative to Control (100) [1, 4]: 97
- Liver lipid levels PL, relative to Control (100) [1, 4]: 82
- Liver lipid levels TG, relative to Control (100) [1, 4]: 69
- Relative liver weight, relative to Control (100) [1, 4]: 102
- Serum lipid levels Ch, relative to Control (100) [1, 4]: 60
- Serum lipid levels PL, relative to Control (100) [1, 4]: 59
- Serum lipid levels TG, relative to Control (100) [1, 4]: 47
- lipid lowering effects compared with KCD-232 (in words) ([2]; 100 mg/kg p.o. 10 days): the lipid lowering effects were superior to that of KCD-232
- response vs control in vivo at 100 mg/kg ([2]; 240 h, Table 2, in parentheses, Control = (100), read-out: Liver lipid levels PL, relative to Control (100)): 107%
- response vs control in vivo at 100 mg/kg ([2]; Table 2, in parentheses, Control = (100), read-out: Liver lipid levels Ch, relative to Control (100)): 94.4%
- response vs control in vivo at 100 mg/kg ([2]; Table 2, in parentheses, Control = (100), read-out: Liver lipid levels TG, relative to Control (100)): 80.5%
- response vs control in vivo at 100 mg/kg ([2]; Table 2, in parentheses, Control = (100), read-out: Serum lipid levels Ch, relative to Control (100)): 67.2%
- response vs control in vivo at 100 mg/kg ([2]; Table 2, in parentheses, Control = (100), read-out: Serum lipid levels PL, relative to Control (100)): 60.9%
- response vs control in vivo at 100 mg/kg ([2]; Table 2, in parentheses, Control = (100), read-out: Serum lipid levels TG, relative to Control (100)): 24.2%
- Liver lipid levels Ch [2, 5]: 2.87 ± 0.13 mg/g liver
- Liver lipid levels PL [2, 5]: 40.8 ± 0.7 mg/g liver
- Liver lipid levels TG [2, 5]: 5.06 ± 0.69 mg/g liver
- Relative liver weight [2, 5]: 4.04 ± 0.10 g/100 g b.w.
- Serum lipid levels Ch [2, 5]: 58.3 ± 3.3 mg/dL
- Serum lipid levels PL [2, 5]: 90.5 ± 4.6 mg/dL
- Serum lipid levels TG [2, 5]: 29.9 ± 2.3 mg/dL
- Relative liver weight, relative to Control (100) ([2]; Table 2, in parentheses, Control = (100)): 105
- LD50 (in vivo): > 4000 mg/kg
